Source: patent publication US9878036B2, “Immunomodulatory compositions comprising a polymer matrix and an oil phase” (Sigmoid Pharma Limited, priority 2009, dated 2018)

System: BALB/c mice
Conditions: mouse, in vivo, po

With “ovalbumin alone in solution: model antigen ovalbumin (200 μg/mouse) in bicarbonate buffer, oral comparator” the “OVA-specific IgG antibodies in sera” value was “variable IgG antibody responses”.
